Test results taken from patent US4239752A, “O-Demethylseldomycin factor 5 derivatives” (Abbott Laboratories, priority 1979, dated 1980).
≈ marks a conversion by molar mass, not a printed value.

Key:
Escherichia coli R19 = experiment: in vitro antibiotic activity, two fold dilution test (MIC); assay type: cell-based; conditions: Streptomycin Assay Agar with yeast extract, pH 7.9, inoculum approx. 1×10^5
Procedure: (§1) The in vitro antibiotic activity is determined by a two fold dilution test using Streptomycin Assay Agar with yeast extract (at pH 7.9). The inoculum of approximately 1×10^5 of the indicated test organism is delivered by a multiple inoculator. The minimum inhibitory concentrations for a representative compound, O-demethyl-3'-deoxyseldomycin factor 5 is set forth in Table II. The minimum inhibitory concentrations are expressed in micrograms per milliliter.

Escherichia coli NR 79 = experiment: as above; assay type: cell-based; conditions: NR79, Streptomycin Assay Agar with yeast extract, pH 7.9, inoculum approx. 1×10^5
Procedure: as §1

[1] = test system: Proteus stuartii ATCC 25825; experiment: as above; assay type: cell-based; conditions: Streptomycin Assay Agar with yeast extract, pH 7.9, inoculum approx. 1×10^5
Procedure: as §1

[2] = test system: Pseudomonas aeruginosa PST; experiment: as above; assay type: cell-based; conditions: Streptomycin Assay Agar with yeast extract, pH 7.9, inoculum approx. 1×10^5
Procedure: as §1

Eschericha coli ATCC 26 = experiment: as above; assay type: cell-based; conditions: Streptomycin Assay Agar with yeast extract, pH 7.9, inoculum approx. 1×10^5
Procedure: as §1

Escherichia coli R5 = experiment: as above; assay type: cell-based; conditions: Streptomycin Assay Agar with yeast extract, pH 7.9, inoculum approx. 1×10^5
Procedure: as §1

[3] = test system: Pseudomonas aeruginosa BMH#1; experiment: as above; assay type: cell-based; conditions: Streptomycin Assay Agar with yeast extract, pH 7.9, inoculum approx. 1×10^5
Procedure: as §1

[4] = test system: Bacillus subtilis U. of Ill. 10707; experiment: as above; assay type: cell-based; conditions: Streptomycin Assay Agar with yeast extract, pH 7.9, inoculum approx. 1×10^5
Procedure: as §1

[5] = test system: Staphylococcus aureus ATCC 6538P; experiment: as above; assay type: cell-based; conditions: ATCC6538P, Streptomycin Assay Agar with yeast extract, pH 7.9, inoculum approx. 1×10^5
Procedure: as §1

Escherichia coli R3 = experiment: as above; assay type: cell-based; conditions: Streptomycin Assay Agar with yeast extract, pH 7.9, inoculum approx. 1×10^5
Procedure: as §1

[6] = test system: Proteus vulgaris ATCC 6897; experiment: as above; assay type: cell-based; conditions: ATCC6897, Streptomycin Assay Agar with yeast extract, pH 7.9, inoculum approx. 1×10^5
Procedure: as §1

[7] = test system: Klebsiella pneumoniae ATCC 10031; experiment: as above; assay type: cell-based; conditions: ATCC10031, Streptomycin Assay Agar with yeast extract, pH 7.9, inoculum approx. 1×10^5
Procedure: as §1

Escherichia coli 76-2 = experiment: as above; assay type: cell-based; conditions: 762, Streptomycin Assay Agar with yeast extract, pH 7.9, inoculum approx. 1×10^5
Procedure: as §1

[8] = test system: Pseudomonas aeruginosa KY-8512; experiment: as above; assay type: cell-based; conditions: KY8512, Streptomycin Assay Agar with yeast extract, pH 7.9, inoculum approx. 1×10^5
Procedure: as §1

Escherichia coli R16 = experiment: as above; assay type: cell-based; conditions: Streptomycin Assay Agar with yeast extract, pH 7.9, inoculum approx. 1×10^5
Procedure: as §1

[9] = test system: Gram-positive and Gram-negative organisms; conditions: Staphylococcus aureus, Klebsiella pneumoniae, Escherchia coli and Proteus species; cited from earlier work

Compound	MIC (Escherichia coli R19)	MIC (Escherichia coli NR 79)	MIC [1]	MIC [2]	MIC (Eschericha coli ATCC 26)	MIC (Escherichia coli R5)	MIC [3]	MIC [4]	MIC [5]	MIC (Escherichia coli R3)	MIC [6]	MIC [7]	MIC (Escherichia coli 76-2)	MIC [8]	MIC (Escherichia coli R16)	antibiotic activity [9]
NC[C@@H]1CC[C@@H](N)[C@@H](O[C@H]2[C@H](O)[C@@H](OC3OCC(O)C(N)C3N)[C@H](N)C[C@@H]2N)O1 (stereo partly shown) [O-demethyl-3'-deoxyseldomycin factor 5, O-Demethyl-3'-deoxyseldomycin factor 5]	0.16 µg/mL (≈ 0.38 µM)	0.16 µg/mL (≈ 0.38 µM)	2.5 µg/mL (≈ 5.95 µM)	720 µg/mL (≈ 1710 µM)	0.16 µg/mL (≈ 0.38 µM)	0.8 µg/mL (≈ 1.9 µM)	0.63 µg/mL (≈ 1.5 µM)	0.01 µg/mL (≈ 0.0238 µM)	0.02 µg/mL (≈ 0.0476 µM)	2.5 µg/mL (≈ 5.95 µM)	0.31 µg/mL (≈ 0.737 µM)	0.04 µg/mL (≈ 0.0951 µM)	0.16 µg/mL (≈ 0.38 µM)	1.25 µg/mL (≈ 2.97 µM)	0.4 µg/mL (≈ 0.951 µM)	–
COC1COC(O[C@@H]2[C@@H](O)[C@H](O[C@H]3O[C@H](CN)C[C@H](O)[C@H]3N)[C@@H](N)C[C@H]2N)C(N)C1N (stereo partly shown) [Seldomycin factor 5]	–	–	–	–	–	–	–	–	–	–	–	–	–	–	–	highly active, broad-spectrum antibiotic effective against both Gram-positive and Gram-negative organisms
